Test results from the supplement of paper PMC9763283.

How the values were obtained:
Assay in all cases: area under growth-rate inhibition curve (AUC GRI) (dimensionless (GR-based AUC)); higher = less growth inhibition
Conditions in all cases: exposure time: 72 h; concentrations: 0.1, 1, 10 uM
[1] = test system: MDA-MB-468
In short: (§1)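 The area under the growth-rate inhibition curve was measured in six breast cancer cell line models, covering triple-negative lines and HER2+ lines, both parental and resistant to a two-drug combination. Cells were exposed to compound at 0.1, 1 or 10 µM for 72 h, fixed in 4% paraformaldehyde, and nuclei were stained with Hoechst 33342 or DAPI for imaging and counting. Day 0 plates, untreated Day 3 plates and DMSO controls served to correct growth across 2 biological replicates.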

[2] = test system: BT474-P
In short: as §1

[3] = test system: SKBR3-LTR
In short: as §1

[4] = test system: MDA-MB-231
In short: as §1

[5] = test system: BT474-LTR
In short: as §1

[6] = test system: SKBR3-P
In short: as §1

Row | Compound | area under growth-rate inhibition curve [1] | area under growth-rate inhibition curve [2] | area under growth-rate inhibition curve [3] | area under growth-rate inhibition curve [4] | area under growth-rate inhibition curve [5] | area under growth-rate inhibition curve [6]
1 | Cc1nn(-c2ccccc2)c(C)c1C=NN1CCN(Cc2ccccc2)CC1 [SANT-1] | 1.02 | 0.98 | 1.05 | 0.992 | 1.08 | 1.04
2 | O=C(O)c1ccc2ccccc2c1O.OCc1cc(C(O)CNCCCCCCOCCCCc2ccccc2)ccc1O (configuration not stated) [Salmeterol Xinafoate] | 0.875 | 0.905 | 0.993 | 0.832 | 0.877 | 0.95
3 | CN1C2CC(O)CC1C1OC12 (configuration not stated) [Scopine] | 1.05 | 1.05 | 1.05 | 1.07 | 1.08 | 1.03
4 | Br.CN1C2CC(OC(=O)C(CO)c3ccccc3)CC1C1OC12 (configuration not stated) [Scopolamine HBr] | 1.04 | 1.05 | 1.09 | 1.03 | 1.08 | 1.01
5 | CN[C@@H]1CC[C@@H](c2ccc(Cl)c(Cl)c2)c2ccccc21.[Cl-].[H+] [Sertraline HCl] | 0.907 | 0.935 | 0.981 | 0.918 | 0.972 | 0.963
6 | C[C@H](Cc1cc2c(c(C(N)=O)c1)N(CCCO)CC2)NCCOc1ccccc1OCC(F)(F)F [Silodosin] | 1.05 | 1.06 | 1.1 | 1.04 | 1.1 | 1.03
7 | Cc1cc2c(cc1CC(=O)c1sccc1S(=O)(=O)[N-]c1onc(C)c1Cl)OCO2.[Na+] [Sitaxentan sodium] | 1.04 | 1.06 | 1.07 | 1.04 | 1.08 | 1.04
8 | CCOc1ccc(Cc2cc([C@@H]3O[C@H](SC)[C@@H](O)[C@H](O)[C@H]3O)ccc2Cl)cc1 [Sotagliflozin (LX4211)] | 0.996 | 1.02 | 1.1 | 1.01 | 1.06 | 1.02
9 | CC(C)NCC(O)c1ccc(NS(C)(=O)=O)cc1.[Cl-].[H+] (configuration not stated) [Sotalol] | 1.05 | 1.05 | 1.07 | 1.03 | 1.09 | 1.03
10 | CNS(=O)(=O)Cc1ccc2[nH]cc(CCN(C)C)c2c1.O=C(O)CCC(=O)O [Sumatriptan Succinate] | 1.03 | 1.05 | 1.06 | 1.02 | 1.1 | 1.04
11 | Cc1ccc(-n2nccn2)c(C(=O)N2CCN(c3nc4cc(Cl)ccc4o3)CCC2C)c1 (configuration not stated) [Suvorexant (MK-4305)] | 0.955 | 1.02 | 1.04 | 1.02 | 1.05 | 0.995
12 | CNCC(O)c1ccc(O)cc1.Cl (configuration not stated) [Synephrine HCl] | 1.05 | 1.05 | 1.07 | 0.993 | 1.11 | 1.01
13 | CNCC(O)c1ccc(O)cc1 (configuration not stated) [Synephrine] | 1.05 | 1.05 | 1.07 | 0.993 | 1.06 | 1.03
14 | CC/C(=C(\c1ccccc1)c1ccc(OCCN(C)C)cc1)c1ccccc1.O=C(O)CC(O)(CC(=O)O)C(=O)O [Tamoxifen Citrate] | 0.952 | 0.851 | 0.982 | 0.958 | 0.896 | 0.938
15 | CCC(c1cccc(O)c1)C(C)CN(C)C (configuration not stated) [Tapentadol] | 1 | 1.01 | 1 | 0.986 | 1.01 | 1.01
16 | COc1cc2nc(N3CCN(C(=O)C4CCCO4)CC3)nc(N)c2cc1OC.O.[Cl-].[H+] (configuration not stated) [Terazosin HCl] | 1.04 | 1.02 | 1.1 | 1.02 | 1.09 | 1.03
17 | COc1cc2nc(N3CCN(C(=O)C4CCCO4)CC3)nc(N)c2cc1OC.[Cl-].[H+] (configuration not stated) [Terazosin] | 0.998 | 1.02 | 1.01 | 0.999 | 1.07 | 1.03
18 | [Cl-].[H+].c1ccc2c(c1)CCCC2C1=NCCN1 (configuration not stated) [Tetrahydrozoline HCl] | 1.03 | 1.03 | 1.02 | 1.01 | 1.07 | 1.02
19 | CN1c2ccccc2C(NCCCCCCC(=O)[O-])c2ccc(Cl)cc2S1(=O)=O.[Na+] (configuration not stated) [Tianeptine sodium] | 1.05 | 1.06 | 1.02 | 1.02 | 1.09 | 1.01
20 | CCCSc1nc(NC2CC2c2ccc(F)c(F)c2)c2nnn(C3CC(OCCO)C(O)C3O)c2n1 (configuration not stated) [Ticagrelor] | 0.975 | 0.922 | 0.968 | 0.975 | 0.984 | 0.995
21 | CC(C)(C)NC[C@@H](O)COc1nsnc1N1CCOCC1.O=C(O)/C=C\C(=O)O [Timolol Maleate] | 1.04 | 1.04 | 1.06 | 1.03 | 1.11 | 1.02
22 | C[N+]1(C)[C@@H]2CC(OC(=O)C(O)(c3cccs3)c3cccs3)C[C@H]1C1OC12.O.[Br-] (some centres not stated) [Tiotropium Bromide hydrate] | 1.03 | 1.05 | 1.04 | 1.05 | 1.12 | 1.02
23 | Cl.Clc1ccc2nsnc2c1NC1=NCCN1 [Tizanidine HCl] | 1.02 | 1.02 | 1.01 | 1.02 | 1.07 | 1
24 | [Cl-].[H+].c1ccc(CC2=NCCN2)cc1 [Tolazoline HCl] | 1.05 | 1.06 | 1.1 | 1.04 | 1.1 | 1.02
25 | Cc1ccc(O)c([C@H](CCN(C(C)C)C(C)C)c2ccccc2)c1.O=C(O)[C@H](O)[C@@H](O)C(=O)O [Tolterodine tartrate] | 1.04 | 1.04 | 1.06 | 1.03 | 1.12 | 0.972
26 | Cc1ccccc1C(=O)Nc1ccc(C(=O)N2CCCC(O)c3cc(Cl)ccc32)c(C)c1 (configuration not stated) [Tolvaptan] | 1.02 | 1 | 1.03 | 1.01 | 1.03 | 1.02

Row | Compound | area under growth-rate inhibition curve [1] | area under growth-rate inhibition curve [2] | area under growth-rate inhibition curve [3] | area under growth-rate inhibition curve [4] | area under growth-rate inhibition curve [5] | area under growth-rate inhibition curve [6]
27 | CC1(C)O[C@@H]2[C@@H](CO[C@@]3(COS(N)(=O)=O)OC(C)(C)O[C@@H]23)O1 [Topiramate] | 1.05 | 1.02 | 1.04 | 1.03 | 1.05 | 1.02
28 | CN(C)CCOc1ccc(/C(=C(/CCCl)c2ccccc2)c2ccccc2)cc1.O=C(O)CC(O)(CC(=O)O)C(=O)O [Toremifene Citrate] | 0.908 | 0.893 | 0.977 | 0.941 | 0.945 | 0.98
29 | CCC(COC(=O)c1cc(OC)c(OC)c(OC)c1)(c1ccccc1)N(C)C (configuration not stated) [Trimebutine] | 0.984 | 0.981 | 1 | 0.972 | 0.977 | 1.03
30 | CCN(Cc1ccncc1)C(=O)C(CO)c1ccccc1 (configuration not stated) [Tropicamide] | 1.01 | 1.05 | 1.07 | 1.02 | 1.09 | 1.01
31 | CN1[C@@H]2CC[C@H]1CC(OC(=O)C1C=Nc3ccccc31)C2.[Cl-].[H+] (some centres not stated) [Tropisetron] | 1.02 | 1.02 | 1.06 | 1.03 | 1.09 | 0.976
32 | O=C(O[C@H]1C[C@H]2CC[C@@H](C1)[N+]21CCCC1)C(O)(c1ccccc1)c1ccccc1.[Cl-] [Trospium chloride] | 1.06 | 1.06 | 1.09 | 1.04 | 1.11 | 1
33 | COc1ccccc1N1CCN(CCCNc2cc(=O)n(C)c(=O)n2C)CC1.[Cl-].[H+] [Urapidil HCl] | 1.04 | 1.03 | 1.09 | 1.02 | 1.1 | 1.04
34 | COc1ccc(C(CN(C)C)C2(O)CCCCC2)cc1 (configuration not stated) [Venlafaxine] | 0.994 | 0.982 | 1.01 | 0.983 | 0.974 | 0.972
35 | CS(=O)(=O)c1ccc(C(=O)Nc2ccc(Cl)c(-c3ccccn3)c2)c(Cl)c1 [Vismodegib (GDC-0449)] | 0.997 | 1.03 | 1.03 | 1.03 | 1.08 | 1.03
36 | CCOC(=O)NC1CCC2C(C1)CC1C(=O)OC(C)C1C2C=Cc1ccc(-c2cccc(F)c2)cn1 (configuration not stated) [Vorapaxar] | 0.966 | 0.947 | 0.983 | 1.01 | 1.04 | 0.944
37 | c1ccc(NCc2ccc(CNc3ccccn3)cc2)nc1 [WZ811] | 1.04 | 1.02 | 1.04 | 1.02 | 1.08 | 1.01
38 | Cc1cccc(C)c1NC1=NCCCS1.[Cl-].[H+] [Xylazine HCl] | 1.04 | 1.04 | 1.07 | 1.02 | 1.12 | 1.01
39 | COc1nc(C)cnc1NS(=O)(=O)c1cccnc1-c1ccc(-c2nnco2)cc1 [Zibotentan (ZD4054)] | 1.01 | 1.02 | 1.04 | 1.03 | 1.07 | 0.958
40 | CC(c1cc2ccccc2s1)N(O)C(N)=O (configuration not stated) [Zileuton] | 1.05 | 1.04 | 1.05 | 1.04 | 1.07 | 1.04
41 | O=C1Cc2cc(CCN3CCN(c4nsc5ccccc45)CC3)c(Cl)cc2N1.[Cl-].[H+] [Ziprasidone hydrochloride] | 1.03 | 0.993 | 1.05 | 1.03 | 1.06 | 1
42 | CN(C)CCc1c[nH]c2ccc(C[C@H]3COC(=O)N3)cc12 [Zolmitriptan] | 1.05 | 1.06 | 1.07 | 1.06 | 1.09 | 1.03
43 | CN(C)CCOC(c1ccc(Cl)cc1)c1ccccn1 (configuration not stated) [carbinoxamine] | 1.04 | 0.999 | 1.06 | 1.04 | 1.04 | 1.03
44 | CN1CC(C(=O)NC2(C)OC3(O)C4CCCN4C(=O)C(Cc4ccccc4)N3C2=O)C=C2c3cccc4[nH]cc(c34)CC21 (configuration not stated) [ergotamine] | 1 | 1.01 | 1.06 | 1.03 | 1.03 | 1.02
45 | Nc1cc(-c2ccncc2)c[nH]c1=O [inamrinone] | 1.06 | 0.994 | 1.05 | 1.04 | 1.03 | 1.03
46 | CC(C)C1NC(=O)C(CCCCN)NC(=O)C(Cc2c[nH]c3ccccc23)NC(=O)C(Cc2ccc(O)cc2)NC(=O)C(NC(=O)C(N)Cc2ccc3ccccc3c2)CSSCC(C(=O)NC(C(N)=O)C(C)O)NC1=O (configuration not stated) [lanreotide] | 1.02 | 1 | 1.01 | 0.986 | 1 | 1.01
47 | Nc1cccc2c1CN(C1CCC(=O)NC1=O)C2=O (configuration not stated) [lenalidomide] | 1.04 | 1.01 | 1.06 | 1.04 | 1.03 | 1.02
48 | CCOC(=O)C1(c2ccccc2)CCN(C)CC1 [meperidine] | 1.04 | 0.992 | 1.06 | 1.04 | 1.04 | 1.02
49 | COc1ccc(OC)c(C(O)C(C)N)c1 (configuration not stated) [methoxamine] | 1.05 | 1.01 | 1.04 | 1.05 | 1.07 | 1.05
50 | CCc1c(C)[nH]c2c1C(=O)C(CN1CCOCC1)CC2 (configuration not stated) [molindone] | 1.06 | 1.01 | 1.05 | 1.05 | 1.04 | 1.03
51 | CCN(CC)CCOC(=O)c1ccc(N)cc1.[Cl-].[H+] [procaine] | 1.03 | 1.02 | 1.07 | 1.03 | 1.05 | 1.01
52 | Cc1ccc(/C(=C\CN2CCCC2)c2ccccn2)cc1.Cl [trans-Triprolidine hydrochloride] | 1.03 | 1.03 | 1.05 | 1.03 | 1.05 | 1.03
